Source: article PMC8910297, “Investigation of the Molecular Details of the Interactions of Selenoglycosides and Human Galectin-3” (International Journal of Molecular Sciences, 2022)
Read-outs that look alike come from different tables or passages of the source.

Assays:
[1] = target: T1, Human galectin-3 (hGal-3) (Homo sapiens, UniProt P17931); test: biochemical
T1 construct: gene LGALS3

[2] = target: T1, Human galectin-3 (hGal-3); test: biochemical; remark: listed apart in the source

T1 sequence (P17931 108-250): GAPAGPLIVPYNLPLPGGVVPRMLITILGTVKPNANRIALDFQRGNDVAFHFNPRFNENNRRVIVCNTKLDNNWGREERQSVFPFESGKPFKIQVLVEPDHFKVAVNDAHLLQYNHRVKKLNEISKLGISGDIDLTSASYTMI

| SMILES | Kd [1] | Kd [2] |
| --- | --- | --- |
| OC[C@H]1O[C@@H]([Se][Se][C@@H]2O[C@H](CO)[C@H](O)[C@H](O)[C@H]2O)[C@H](O)[C@@H](O)[C@H]1O [DSeDG, di(β-D-galactopyranosyl)diselenide] | 8.5 ± 2.5 mM |  |
| OC[C@H]1O[C@@H]([Se][C@@H]2O[C@H](CO)[C@H](O)[C@H](O)[C@H]2O)[C@H](O)[C@@H](O)[C@H]1O [SeDG, di(β-D-galactopyranosyl)selenide] |  | 0.0352 ± 0.0072 mM |
